Results from US20110190235A1, “BORON-CONTAINING SMALL MOLECULES AS ANTIPROTOZOAL AGENTS” (Anacor Pharmaceuticals, Inc., priority 2009, published 2011).
Values after ≈ are worked out from the molar mass of the structure shown. Where two headings read alike, the source gives them in different places.

Experiments:
[1] = tested on: TREU 667 strain of T. b. brucei; experiment: Chronic CNS Model; format: in vivo, T. b. brucei in mice
Procedure: Mice were infected with 10,000 parasites of the TREU 667 strain of T. b. brucei. Twenty one days post-infection mice were treated with a dose of between 6 and 100 mg/kg of the compound, either BID or QD for 7 days intraperitoneally (IP) or orally (PO). Positive control mice were treated with Diminazene (10 mg/kg, IP) on Day 4 post-infection. Negative control mice were treated with Diminazene (10 mg/kg, PO) on Day 21. Since Diminazene is not able to penetrate the CNS, mice treated at Day 21 are not able to cure the infection. Starting 1 week after the end of treatment, mice are monitored for parasitemia and sacrificed if parasites are detected in the blood. Mice that survive 6 months are considered “cured.”

[2] = tested on: bloodstream-form trypanosome T. brucei brucei 427 strain; experiment: Trypanosoma brucei brucei high-throughput in vitro drug sensitivity assay (resazurin); format: cell-based; conditions: for Selectivity Index (L929 IC50 / T. b. brucei IC50): T. b. brucei vs L929; for IC50: Trypanosoma brucei
[3] = Kinetic solubility by nephelometric (light scattering) method; format: physicochemical; conditions: phosphate buffered saline, aqueous buffer, kinetic from dmso stock, PBS pH 7.4
Procedure: The kinetic solubilities of compounds were estimated using a nephelometric (light scattering) method. Briefly, compounds were serially diluted in DMSO, followed by dilution in PBS pH 7.4. After incubation, the amount of light scattered by a compound at each concentration was measured. […] At concentrations above the solubility limit, the compound precipitates and the precipitant in the well scatters the light, generating a signal. Higher levels of precipitant in a well scatter more light and produce a stronger signal.
A stock solution of compound (25 mM in DMSO) was prepared, and was serially diluted in DMSO in two-fold increments in a row of a 96 well plate to a lowest concentration of 24 μM. A duplicate plate was prepared by transfer of half of the volume of each well to a new plate. Each well containing DMSO solution of the test compound was then diluted further (1:100) with phosphate buffered saline (pH 7.4) to provide aqueous solutions of compound at the following final concentrations: 250, 125, 62.5, 31.3, 15.6, 7.8, 3.9, 2.0, 1.0, 0.5 and 0.2 μM. All liquid handling stages were performed on a Beckman Coulter Biomek NX Laboratory Automation Workstation. Each compound was diluted and tested in duplicate, providing four separate wells at each test concentration.
The test solutions of compound were incubated at room temperature for 90 minutes and then analyzed using a Thermoskan Ascent nephelometric plate reader. The nephelometer protocol included two steps: first, the plate was shaken for 60 seconds at 1200 rpm, then each well of the plate was read in succession with an 800 ms settling delay between measurements. The total measurement time for a single plate was less than 4 minutes.
The four values (in nephelometric units) obtained for each compound at each concentration were averaged and plotted on a log scale versus concentration.

[4] = L929 cytotoxicity evaluation (resazurin); format: cell-based; conditions: mouse, L929 mouse fibroblast cells; 72 hrs incubation; read-out: Cytotox L-929 IC50
Summary of the method: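 Mouse L929 fibroblasts (1×10^4/mL seeding, attached overnight) were treated 72 h at 37 °C, 5% CO2 with serially diluted compounds in DMSO in D-MEM/10% FBS. Viability read by resazurin fluorescence after 3–4 h (ex 544/em 590 nm); IC50 from sigmoidal fits of single data points.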

[5] = tested on: Leishmania donovani strain 1S-CL2D axenic amastigotes; experiment: Leishmania donovani axenic amastigote in vitro drug sensitivity assay (resazurin); format: cell-based; conditions: for Selectivity Index (Ld/L929): L. donovani vs L929; for IC50: Leishmania donovani, 72 hrs incubation
Procedure: All experiments were conducted with the axenic amastigote-form of the following parasite: Leishmania donovani strain 1S-CL2D from Sudan, World Health Organization (WHO) designation: (MHOM/SD/62/1 S-CL2D). Parasites were cultured in T-25 vented cap flasks and kept in humidified incubators at 37° C. and 5% CO2. The axenic parasite culture media was RPMI-1640/MES/pH 5.5 formulated and prepared as described by Debrabant et. al. (International Journal for Parasitology 2004, Volume 34, page 205-217). To ensure log growth phase, axenic amastigotes were sub-cultured at appropriate dilutions every 2-3 days.
Cultures of axenic amastigotes growing in the log phase were passed through a 22 gauge blunt needle to break up the clumps, diluted 1:10 in RPMI-1640/MES medium and counted using hemocytometer to determine parasite concentration. Amastigotes were diluted to 2×10^5/mL in RPMI-1640/MES medium to generate a 2-fold working concentration for assay. Compounds to be tested were serially diluted in DMSO and 0.5 μL added to 50 μL HMI-9 in triplicate 96-well plates using a Biomek NX liquid handler. Parasites from the diluted stock were added to each well (50 μL) using a Multidrop 384 dispenser to give a final concentration of 1.0×10^5/ml parasites in 0.5% for DMSO. Amastigotes were incubated with compounds for 72 hrs at 37° C. with 5% CO2. Resazurin (10 μL of 12.5 mg/ml stock) from Sigma-Aldrich was added to each well and plates were incubated for an additional 2-3 hrs. Assay plates were read using an EnVision plate reader at an excitation wavelength of 544 nm and emission of 590 nm. Triplicate data points were averaged to generate sigmoidal dose response curve and determine IC50 values using XLfit curve fitting software from IDBS (Guildford, UK).

[6] = Pharmacokinetic studies in mice (plasma, brain); format: in vivo; conditions: for CL/F / half-life / Cmax / AUC(0-inf) / AUC(0-t): male, CD-1, mouse, 8 mg/kg, oral; for CL/F / half-life: mice (Table 3a); for CL/F: read-out: Oral Clearance Cl/F (converted); for half-life: read-out: t½ (converted); for Cmax / AUC(0-inf) / AUC(0-t): mice, normalized to 25 mg/kg (Table 3a); for AUC(0-inf): read-out: Exposure/trapezoid AUC0-inf; for AUC(0-t): read-out: Exposure/trapezoid AUC0-last; for Fold improvement 69 vs E14: AUC0-inf / Fold improvement 69 vs E14: AUC0-last / Fold improvement 69 vs E14: Cmax / Fold improvement 69 vs E14: Oral Clearance Cl/F / Fold improvement 69 vs E14: t½: mouse, in vivo, po
Procedure: Male CD-1 mice weighing approximately 25 g received the test article (E19 or 82 or E14 or 69) by either intravenous (IV), oral gavage (OG) or intra-peritoneal (IP) routes. Animals in IV group (6-10 animals, 1-2 per time point) received a single bolus injection of approximately 2 mg/kg of the test article. Animals receiving […], or as 4 repeat doses ([…], 1-2 per time point).
All doses were administered as clear colorless solutions in either: 50% (v/v) PEG400:20% (v/v) ethanol:30% (v/v) carboxymethylcellulose (0.5% w/v in sterile water for injection, WFI), or as in situ sodium salts in 5% (m/v) dextrose:2% (v/v) ethanol in DWI. All dose solutions were delivered at 4 mL/kg. Animals were fasted for at least 4 hours before dosing, and for 2 hours after dosing.
Blood samples and brain tissue were sampled from 1 or 2 animals/timepoint/group immediately before dosing and approximately 0.17, 0.5, 1, 2, 3, 4, 6, 8, 12, 18 and 24 hr after dosing for full pharmacokinetic and tissue analysis, or at 0.5, 2 and 4 hours post dosing to assess early-phase CNS disposition.
Bioanalysis for test article in whole blood, plasma or brain tissue was performed by HPLC with tandem mass spectrometry (LC-MSMS). Whole blood and plasma samples were treated with 3 volumes of either acetonitrile or methanol to precipitate plasma proteins. Treated samples were centrifuged and supernatants removed for analysis. Brain tissues were weighed and homogenized mechanically in the presence of 1 volume of phosphate-buffered saline (PBS). The resulting tissue suspensions were then diluted with a further volume of PBS, and then treated in the same manner as whole blood or plasma.
Extracted samples were assayed for test article by means of LC-MSMS employing reversed-phase chromatography coupled to a triple quadrupole mass spectrometer employing electrospray ionization in the positive ion mode. The analytical column was a Phenomenex Luna 3μ C8 50×2 mm, with an online sample purification step performed on a Phenomenex Synergi 4μ Polar RP 50×2 mm column.
Test articles were eluted using a binary mobile phase gradient comprising 5 mM Ammonium Acetate: 0.1% formic acid in either MeOH or H2O.
Non-compartmental analysis of plasma test article concentration versus time was performed in Microsoft Excel to generate pharmacokinetic parameters including: area under the curve (AUC), clearance (as Cl or Cl/F), volume of distribution (Vdss), half-life (t½), and bioavailability (F).

[7] = 72 hrs incubation, read-out: T. b. brucei IC50
[8] = 72 hrs incubation, read-out: T.b. brucei IC50
[9] = read-out: L. donovani axenic amastigotes IC50
[10] = read-out: L. donovani axenic amastigotes IC50 (ug/mL)

CC1(C)OB(O)c2cc(NC(=O)c3ccc(F)cc3C(F)(F)F)ccc21
mice with absence of blood parasites through Day 84 ([1]; 75 mg/kg BID for 7 days, starting at Day 21 post-infection): 100%

N=C(N)c1ccc(/N=N/Nc2ccc(C(=N)N)cc2)cc1 [Diminazene, diminazene, reference compound]
Day by which all animals relapsed to exhibit blood parasitemia ([1]; treated on Day 21 (10 mg/kg)): ≤ 49 days

CC1OB(O)c2cc(NC(=O)c3ccc(F)cc3C(F)(F)F)ccc21 (stereo not shown) [compound 1]
Selectivity Index (L929 IC50 / T. b. brucei IC50) [2]: 13
IC50 [2, 7]: 258 nM
IC50 [2, 8]: 0.091 µg/mL
solubility at 90 min [3]: 50 µM (≈ 17.7 µg/mL)
IC50 at 72 h [4]: 1.21 µg/mL (≈ 3.43 µM)
Selectivity Index (Ld/L929) [5]: 7
IC50 [5, 9]: 524 nM
IC50 [5, 10]: 0.185 µg/mL

CC1OB(O)c2cc(NC(=O)c3ccccc3C(F)(F)F)ccc21 (stereo not shown) [compound 2, N-(1-Hydroxy-3-methyl-1,3-dihydro-benzo[c][1,2]oxaborol-6-yl)-2-trifluoromethyl-benzamide]
Selectivity Index (L929 IC50 / T. b. brucei IC50) [2]: 7
IC50 [2, 7]: 233 nM
IC50 [2, 8]: 0.078 µg/mL
solubility at 90 min [3]: 3 µM (≈ 1.01 µg/mL)
IC50 at 72 h [4]: 0.53 µg/mL (≈ 1.58 µM)
Selectivity Index (Ld/L929) [5]: 2
IC50 [5, 9]: 830 nM
IC50 [5, 10]: 0.278 µg/mL

CC1OB(O)c2cc(NC(=O)c3ccc(F)cc3)ccc21 (stereo not shown) [compound 3, 4-Fluoro-N-(1-hydroxy-3-methyl-1,3-dihydro-benzo[c][1,2]oxaborol-6-yl)-benzamide]
Selectivity Index (L929 IC50 / T. b. brucei IC50) [2]: >200
IC50 [2, 7]: 175 nM
IC50 [2, 8]: 0.05 µg/mL
solubility at 90 min [3]: 100 µM (≈ 28.5 µg/mL)
IC50 at 72 h [4]: > 10 µg/mL
Selectivity Index (Ld/L929) [5]: >10
IC50 [5, 9]: 344 nM
IC50 [5, 10]: 0.098 µg/mL

CC1OB(O)c2cc(NC(=O)c3ccccc3Cl)ccc21 (stereo not shown) [compound 4, 2-Chloro-N-(1-hydroxy-3-methyl-1,3-dihydro-benzo[c][1,2]oxaborol-6-yl)-benzamide]
Selectivity Index (L929 IC50 / T. b. brucei IC50) [2]: 52
IC50 [2, 7]: 80 nM
IC50 [2, 8]: 0.024 µg/mL
solubility at 90 min [3]: > 200 µM
IC50 at 72 h [4]: 1.24 µg/mL (≈ 4.11 µM)
Selectivity Index (Ld/L929) [5]: 9
IC50 [5, 9]: 458 nM
IC50 [5, 10]: 0.138 µg/mL

COc1ccc(C(=O)Nc2ccc3c(c2)B(O)OC3C)cc1 (stereo not shown) [compound 5, N-(1-Hydroxy-3-methyl-1,3-dihydro-benzo[c][1,2]oxaborol-6-yl)-4-methoxy-benzamide]
Selectivity Index (L929 IC50 / T. b. brucei IC50) [2]: >185
IC50 [2, 7]: 182 nM
IC50 [2, 8]: 0.054 µg/mL
solubility at 90 min [3]: 100 µM (≈ 29.7 µg/mL)
IC50 at 72 h [4]: > 10 µg/mL
Selectivity Index (Ld/L929) [5]: >93
IC50 [5, 9]: 360 nM
IC50 [5, 10]: 0.107 µg/mL

CC1(C)OB(O)c2cc(NC(=O)c3ccc(F)cc3Cl)ccc21 [compound 69, 2-Chloro-4-fluoro-N-(1-hydroxy-3,3-dimethyl-1,3-dihydro-benzo[c][1,2]oxaborol-6-yl)-benzamide]
Selectivity Index (L929 IC50 / T. b. brucei IC50) [2]: >35
IC50 ([2]; 72 h, read-out: T. b. brucei IC50 (nM)): 845 nM
IC50 ([2]; 72 h, read-out: T.b. brucei IC50 (ug/mL)): 0.282 µg/mL
solubility at 90 min [3]: 100 µM (≈ 33.4 µg/mL)
IC50 at 72 h [4]: > 10 µg/mL
CL/F ([6]; brain): 20 mL/min/kg
half-life ([6]; brain): 1.4 h
Cmax ([6]; brain): 3250 ng/mL
AUC(0-inf) ([6]; brain): 21300 ng·h/mL
AUC(0-t) ([6]; brain): 20800 ng·h/mL
CL/F ([6]; plasma): 7.32 mL/min/kg
half-life ([6]; plasma): 3.7 h
Cmax ([6]; plasma): 7670 ng/mL
AUC(0-inf) ([6]; plasma): 58000 ng·h/mL
AUC(0-t) ([6]; plasma): 56900 ng·h/mL
Fold improvement 69 vs E14: AUC0-inf ([6]; in brain): 6.8 fold
Fold improvement 69 vs E14: AUC0-last ([6]; in brain): 6.7 fold
Fold improvement 69 vs E14: Cmax ([6]; in brain): 1.3 fold
Fold improvement 69 vs E14: Oral Clearance Cl/F ([6]; in brain): 6.7 fold
Fold improvement 69 vs E14: t½ ([6]; in brain): 0.9 fold
Fold improvement 69 vs E14: AUC0-inf ([6]; in plasma): 3.8 fold
Fold improvement 69 vs E14: AUC0-last ([6]; in plasma): 4.0 fold
Fold improvement 69 vs E14: Cmax ([6]; in plasma): 2.1 fold
Fold improvement 69 vs E14: Oral Clearance Cl/F ([6]; in plasma): 3.9 fold
Fold improvement 69 vs E14: t½ ([6]; in plasma): 1.2 fold
